Results on one substance are retold here after patent US8478395B2, “Method of measuring electrical resistance value of corneal trans-epithelium” (Nagasaki University, priority 2008, dated 2013).

Series [1] relates to cornea of a living rabbit. In words: Living corneal TER measurement requiring no anterior chamber centesis (conjunctival sac method). In kind it is in vivo. Particulars: 0.02% BAC. How it is done: Evaluation of Corneal Disorder Due to BAC by Living Corneal TER Measurement Requiring No Anterior Chamber Centesis (Referred to as Conjunctival Sac Method) (FIG. 1)
Silver-silver chloride electrode having a rod shape was placed on a cornea and into a conjunctival sac of a living rabbit, and a 0.02% BAC was administered thereto. A change in the corneal TER due to exposure to BAC was measured by a voltage-electric resistance value measuring device. A rubber ring (6 mm in the inner diameter) was fixed onto the cornea around the periphery of the electrode by using a bioadhesive (Aron alpha A from Sankyo Co., Ltd.) for insulation, so that an electric current is surely passed through the epithelium of the cornea. An AC current of ±20 μA was flowed, and a change curve of TER, a reduction of TER and a TER value after a lapse of 60 seconds from the exposure to 0.02% BAC, were compared with those from the conventional measuring method in which the anterior chamber centesis was carried out (comparative example 1). The TER value was calculated by subtracting an electric resistance value between the anterior chamber and the conjunctival sac obtained in a preliminary experiment from the measured value.

Series [2] relates to cornea of a living rabbit. In words: Corneal TER measurement with the integrated TER measuring device of FIG. 6. Particulars: 0.02% BAC dropped onto the eye, one minute after the administration, device of FIG. 6, n=3. In kind it is in vivo, Japanese white rabbit. An excerpt: A silver electrode and a silver-silver chloride electrode having a diameter of 1 mm were placed on a round cover glass having a diameter of 12 mm. PDMS having a circular cylinder shape with 10 mm in diameter and 6 mm in inner diameter and having a curvature radius of the corneal contact surface of 7.9 mm was secured onto the cover glass by using an adhesive. An Eppendorf tube was attached to a rear side (on the side opposite to the corneal contact surface (cover glass side)) for mount onto a slit-lamp. The inner space of the PDMS was filled with an atelocollagen gel and its curvature radius was adjusted to 7.9 mm.
A silver electrode and a silver chloride electrode having a diameter of 1 mm were placed on a PET sheet of 0.005×0.5×1 cm, at position of 1 mm from the distal end of the sheet on the eyeball side. The PET sheet, the silver electrode and the silver chloride electrode were thinly coated with a collagen gel. […]
By using thus prepared TER measuring device, a change in the corneal TER of a living rabbit was measured. […]
A 0.02% BAC was dropped onto the eye of the rabbit, and the resulting TER value was compared with the TER value before the administration. […] Prior to the BAC administration (indicated as “normal cornea” in FIG. 7) as well as after the BAC administration, within one second after the device was contacted with the cornea, a stable TER value could be measured.

For another series, the system named is cornea of a rabbit. In words: Living corneal TER measurement using anterior chamber centesis (anterior chamber centesis method). The following applies: 0.02% BAC. In kind it is in vivo. How it is done: Evaluation of Corneal Disorder Due to BAC by Living Corneal TER Measurement Using Anterior Chamber Centesis (Referred to as “Anterior Chamber Centesis Method”)
In accordance with the method described in non-Patent Document 4 supra, electrodes were placed on a cornea and into an anterior chamber of a rabbit, and after administration of 0.02% BAC, a corneal TER was measured.

With benzalkonium chloride [BAC], the TER value in series [1] (after a lapse of 60 seconds) is listed as 175±14 Ωcm^2; in the series on cornea of a rabbit (after a lapse of 60 seconds) it was 138±10 Ωcm^2. Further, the “TER (TER before the administration of the BAC set to 100%)” value in series [1] (after a lapse of 60 seconds, p<0.01) was determined as 13.5±2.1%; in series [1] (ten seconds after the administration) it was 35.1±6.8%; in the series with cornea of a rabbit (60 seconds after the administration) it was 19.7±5.9%. In series [2], the “Change of TER compared with the TER value before the administration” value was “significantly reduced”.
